One data set has as its system CAIA in BALB/c mice. The experiment in a line: Collagen-antibody-induced arthritis (CAIA), clinical score and histopathology. The data set is classed as in vivo. The settings on record: for CAIA joint histopathology / severity of CAIA (mean arthritis score): 30 mg/kg i.p. daily; for CAIA joint histopathology: day 1 to 9, vs saline; for severity of CAIA (mean arthritis score): day 1 to 9, vs vehicle; for therapeutic effect in CAIA compared to IQ-1S: 30 mg/kg i.p., days 6 and 7. The procedure:
CAIA was induced in 7- to 8-week-old BALB/c mice from Charles River Laboratories (Wilmington, MA, USA) by i.p. injection of a cocktail of monoclonal anti-CII antibodies (Chondrex; 1.5 mg/mouse) on day 0, followed by i.p. lipopolysaccharide (LPS) injection (30 μg LPS from Escherichia coli strain 0111:B4 in PBS) on day 3. Control animals received an equal volume of PBS.
Arthritis development was evaluated daily for 10 days post-injection of the monoclonal antibody cocktail. Arthritis symptoms were scored on scale of 0 to 4 in accordance with the Chondrex Mouse Arthritis Scoring System in a blinded manner, as follows: 0, no signs of inflammation; 1, mild redness or swelling of single joint (one of the interphalangeal joints, metacarpophalangeal joints, carpal joint for the front paw, and tarsal joint for the hind); 2, two joints have redness and swelling; 3, all three joint types have redness and swelling; 4, maximal redness and swelling of entire paw leads to the disappearance of anatomical definition.
In CAIA, animals were sacrificed on day 14, and their forward and hind limbs were processed as described above. Three sections in the sagittal projection of joints, 40 µm apart, were examined by the same system with the grades ranging 0 to 4. Total H&E histopathological score for three sections included cartilage destruction, pannus formation, and synovial cells changes. For cartilage destruction, the scale was: 0—normal, superficial zone is smooth; 1—superficial fibrillations, some loss of surface lamina; 2—vertical clefts/erosion to the calcified cartilage up to 25% of the surface; 3—vertical clefts/erosion to the calcified cartilage 25% to 50% of the surface, 4—vertical clefts/erosion to the calcified cartilage more than 50% of the surface, severe chondrocytes, and cartilage matrix loss with new bone tissue substitution. For pannus formation the scale was: 0—normal; 1—exudate in the joint; 2—single inflammatory cells in the exudate; 3—mild infiltration of the inflammatory cells; 4—heavy inflammatory infiltration and debris in the joint. For synovial membrane changes the scale was: 0 – normal, 1 to 2 layer of synovial lining cells; 1—initial hyperplasia of the cells and increased number of lining cells layers; 2—increased number of lining cell layers, more than 3 to 4 layers and/or proliferation of sub-synovial tissue; 3—more than 4 layers of lining cells, focal infiltration of inflammatory cells, proliferation of subsynovial tissue; 4—more than four layers of lining cells, diffused infiltration of inflammatory cells, proliferation of sub-synovial tissue.

In another data set the test system is MMP-1 secretion by FLS. The experiment in a line: IL-1β-induced MMP-1 secretion by FLS (ELISA). The settings on record: Homo sapiens; 30 min compound, then 5 ng/ml IL-1β, 24 h. It counts as cell-based. An excerpt:
This study was approved by the Institutional Review Board of University of California, San Diego School of Medicine (La Jolla, CA, USA). Informed consent was obtained from all participants. Anonymous synovial tissue samples were obtained from six patients with RA at the time of total joint replacement (5 females, 1 male; age range, 44–72 years), as previously described ([Alvaro-Gracia et al., 1990]). The diagnosis of RA conformed to American College of Rheumatology 1987 revised criteria ([Arnett et al., 1988]). The synovium was minced and incubated with collagenase type VIII (0.5 mg/ml) (Sigma-Aldrich) in serum-free RPMI-1640 (Life Technologies, Grand Island, NY, USA) for 2 h at 37°C, filtered, extensively washed, and cultured in DMEM (Life Technologies) supplemented with 10% FBS (Gemini Bio Products, Calabasas, CA, USA), penicillin, streptomycin, gentamicin, and glutamine in a humidified 5% CO2 atmosphere. […]
FLS, HUVEC, SW982, and THP-1 cells were plated in 96 well plates (10^4 to 10^5 cells/well) for 48 h before treatment. […] The levels of MMP-1 and MMP-3 were determined in culture supernatants using commercially available ELISA kits according to the manufacturer’s instructions (R&D System, Minneapolis, MN, USA). IL-6 levels were also determined in the supernatants using a human IL-6 ELISA kit (BD Biosciences, San Jose, CA, USA).
In general terms: ELISA stands for enzyme-linked immunosorbent assay.

The subject of data set [1] is IL-6 secretion by monocytic THP-1 cells. The experiment in a line: IL-1β-induced IL-6 secretion by THP-1 cells (ELISA). The data set is classed as cell-based. The note with it: Homo sapiens, 30 min compound, then 5 ng/ml IL-1β, 24 h. How it is done: (§1) FLS, HUVEC, SW982, and THP-1 cells were plated in 96 well plates (10^4 to 10^5 cells/well) for 48 h before treatment. At 2 days post-confluency, the cells were serum-starved and washed twice (with the exception of THP-1 cell, which were not washed) with FBS-free medium prior to the addition of test compounds. The cells were incubated in the presence or absence of test compounds or DMSO (vehicle control) for 30 min at 37°C in a 5% CO2 atmosphere, IL-1β (5 ng/ml) was added, and the cells were incubated for an additional 24 h. Culture supernatants were collected and stored at –80°C. The levels of MMP-1 and MMP-3 were determined in culture supernatants using commercially available ELISA kits according to the manufacturer’s instructions (R&D System, Minneapolis, MN, USA). IL-6 levels were also determined in the supernatants using a human IL-6 ELISA kit (BD Biosciences, San Jose, CA, USA).

Data set [2] can be described thus: Cytotoxicity assay (CellTiter-Glo), HUVEC. The data set is classed as cell-based. The settings on record: human, HUVECs; concentrations up to 50 µM; read-out: Cytotoxic effect HUVEC IC50. How it is done: (§2) Cytotoxicity was analyzed using a CellTiter-Glo Luminescent Cell Viability Assay Kit (Promega), according to the manufacturer’s protocol. Briefly, cells were cultured at a density of 10^4 to 10^5 cells/well with different concentrations of test compounds (final concentration of DMSO was 1%) for the indicated periods of time (2, 12, or 24 h) at 37°C and 5% CO2. Following treatment, substrate was added to the cells, and the samples were analyzed with a Fluoroscan Ascent FL microplate reader.

Data set [3] is described as follows: Cytotoxicity assay (CellTiter-Glo), THP-1. It counts as cell-based. The settings on record: human, THP-1 cells; concentrations up to 50 µM; read-out: Cytotoxic effect THP-1 IC50. How it is done: as §2
(ATP-based viability assays read luminescence as a measure of living cells.)

Another data set concerns MMP-1 secretion by HUVEC. The experiment in a line: IL-1β-induced MMP-1 secretion by HUVEC (ELISA). The settings on record: Homo sapiens, 30 min compound, then 5 ng/ml IL-1β, 24 h. The data set is classed as cell-based. The procedure:
as §1

Data set [4] relates to CII-specific Abs in CIA mice. The experiment in a line: Anti-CII antibody ELISA in serum of CIA mice. The data set is classed as in vivo. The note with it: 30 mg/kg i.p. daily, day 8 to 42, vs saline. How it is done:
Serum samples from mice with CIA were collected on day 44 after CII injection. Samples of the diluted sera were added to microtiter plates (Greiner Bio-One, Monroe, NC, USA) coated with 2 μg/ml ELISA grade mouse CII (Chondrex). Horseradish peroxidase-conjugated goat […] total IgG, IgG1, IgG2a, IgG2b, and IgG3 (Southern Biotechnology Associates, Birmingham, AL, USA) were used for detection. The samples were developed with 2,2’-azino-bis(3-ethylbenzothiazoline-6-sulphonic acid (Moss Inc., Pasadena, MD, USA), and absorbance was monitored at 415 nm using a SpectraMax Plus microplate reader. Endpoint titer represents reciprocal log 2 for the serum dilution with absorbance ≥ 0.1 above negative control.

Another data set concerns JNK2. Set-up: method as in Schepetkin et al., 2019. The note with it: kinase profiling; ref Schepetkin et al., 2019; cited from earlier work.

Consider 2 molecules from publication PMC7394103 (Frontiers in Pharmacology, 2020).

As a reminder, the IC50 is the concentration at which inhibition is half-maximal. With `O=C1c2ccccc2-n2c1nc1ccccc1c2=O` [TRYP, indolo[2,1-b]quinazolin-6,12-dione], the CAIA joint histopathology result with CAIA in BALB/c mice was “little cartilage erosion, synovial hyperplasia, or cellular infiltration”. Further, the “severity of CAIA (mean arthritis score)” value in the data set on CAIA in BALB/c mice was “significant reductions in the severity of CAIA”. The “therapeutic effect in CAIA compared to IQ-1S” value in the data set on CAIA in BALB/c mice is listed as “significantly greater”. Also, the IC50 stood at 1.2 ± 0.4 µM in the data set on MMP-1 secretion by FLS; 9.3 ± 2.7 µM in data set [1]; 13.8 ± 1.5 µM in data set [2]; 18.2 ± 2.3 µM in data set [3]; 3.4 ± 1.1 µM in the data set with MMP-1 secretion by HUVEC. Further, in data set [4], the “titers of CII-specific IgG, IgG1, IgG2a, IgG2b, IgG3” value is given as “significantly lower”. Further, in the data set on JNK2, the “binding affinity for JNK2” value is reported as “no binding affinity”.
As to `O=c1c2ccccc2nc2n1-c1ccccc1/C2=N/O` [TRYP-Ox, tryptanthrin-6-oxime], the CAIA joint histopathology entry in the data set on CAIA in BALB/c mice is listed as “little cartilage erosion, synovial hyperplasia, or cellular infiltration”. For the same molecule, in the data set with CAIA in BALB/c mice, the “severity of CAIA (mean arthritis score)” value is listed as “significant reductions in the severity of CAIA”. Moreover, the “therapeutic effect in CAIA compared to IQ-1S” value with CAIA in BALB/c mice is “significantly greater”. The IC50 with MMP-1 secretion by FLS is 0.7 ± 0.1 µM; in data set [1], 0.3 ± 0.12 µM; in data set [2] it was more than 50 µM; in data set [3], more than 50 µM; with MMP-1 secretion by HUVEC, 2.9 ± 0.1 µM. For the same molecule, the “titers of CII-specific IgG, IgG1, IgG2a, IgG2b, IgG3” value in data set [4] is reported as “significantly lower”. In addition, in the data set on JNK2, the “binding affinity for JNK2” value is listed as “high binding affinity”.
